The source of these data is ChEMBL document CHEMBL1201862, “PubChem BioAssay data set” (2004).

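1) Cells in 96-well plates. 2) Compound, 48 h, 5 concentrations. 3) Linear interpolation between surrounding doses. 4) Unreached endpoint = highest concentration. GI50 marks 50% less growth.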 Calls of active or inactive are those of the source. No stated cut-off is given here; in the data, active = GI50 up to about 1.1 µM and inactive = higher.

Test systems include A549; ACHN; HCC 2998; HT-29; KM12; M14; MOLT-4; NCI-H226; OVCAR-3; OVCAR-5; SF-539; SK-MEL-2; SK-MEL-5; SW-620; U-251; RXF 393; SNB-75.
Holding throughout (assay): DTP human tumour cell line panel, 48 h

As usually defined, the GI50 is the concentration at which growth is held to half of that of the control. Take `CC(=O)NNc1nc(C)c(C(=O)NNC(=O)C(=O)Nc2ccc(Cl)c([N+](=O)[O-])c2)s1`: the GI50 is 85.5 µM (inactive) in the experiment on A549; 41.1 µM (inactive) in the experiment on ACHN; 66.1 µM (inactive) with HCC 2998; > 100 µM (inactive) in the experiment on HT-29; 88.9 µM (inactive) in the experiment with KM12; > 100 µM (inactive) in the experiment with M14. Besides, the GI50 in the experiment with MOLT-4 is 20 µM (inactive); in the experiment with NCI-H226, > 100 µM (inactive); with OVCAR-3 it was 30.4 µM (inactive); with OVCAR-5 it was > 100 µM (inactive); with SF-539, 53 µM (inactive); in the experiment with SK-MEL-2 it was > 100 µM (inactive). Moreover, the GI50 with SK-MEL-5 is > 100 µM (inactive); in the experiment on SW-620, 32.2 µM (inactive); with U-251, 50.9 µM (inactive).

For the compound `Nc1ccc(C(=O)N/C(=C\c2ccc3c(c2)OCO3)c2nc3ccc4c(c3[nH]2)C(=O)c2ccccc2C4=O)cc1`, the GI50 is 21.1 µM (inactive) with A549; 13.9 µM (inactive) with ACHN; 43.3 µM (inactive) in the experiment on HCC 2998; 40.6 µM (inactive) with HT-29; 17.8 µM (inactive) in the experiment on KM12; 37.8 µM (inactive) in the experiment with M14. For the same compound, the GI50 in the experiment with MOLT-4 is 4.75 µM (inactive); with OVCAR-3, 32.9 µM (inactive); in the experiment on OVCAR-5, > 100 µM (inactive); in the experiment on RXF 393, 10.5 µM (inactive); with SF-539, 21.6 µM (inactive); in the experiment with SK-MEL-2, 21.1 µM (inactive). In addition, the GI50 with SK-MEL-5 is 29 µM (inactive); in the experiment with SNB-75 it was 19.9 µM (inactive); with SW-620, 27.2 µM (inactive); in the experiment on U-251, 33 µM (inactive).

Consider `O=C(Nc1ccccc1)c1ccc(Cl)c([N+](=O)[O-])c1`, for which the GI50 in the experiment with A549 is 20.2 µM (inactive); with HT-29, 13.4 µM (inactive); with KM12, 3.09 µM (inactive); in the experiment on M14 it was 10.2 µM (inactive); with MOLT-4, 3.85 µM (inactive); in the experiment on NCI-H226, 25.2 µM (inactive). Besides, the GI50 in the experiment with OVCAR-3 was 19.1 µM (inactive); with RXF 393, 21.7 µM (inactive); with SF-539, 21.4 µM (inactive); in the experiment on SK-MEL-2, 13.2 µM (inactive); with SK-MEL-5, 5.82 µM (inactive); in the experiment with SNB-75, 13.8 µM (inactive). For the same compound, the values for the GI50 in the experiment with SW-620 and with U-251 were 4.85 µM (inactive) and 19.5 µM (inactive), respectively.

As to `CNS(=O)(=O)NNS(=O)(=O)c1ccc(F)cc1`, the GI50 in the experiment on A549, in the experiment with ACHN, with HT-29, in the experiment on KM12, in the experiment with M14 and in the experiment with MOLT-4 was > 100 µM (inactive) throughout. The GI50 in the experiment on NCI-H226, in the experiment on OVCAR-3, with RXF 393, in the experiment with SF-539, with SK-MEL-2 and with SK-MEL-5 was > 100 µM (inactive) throughout. Besides, the GI50 in the experiment with SNB-75, in the experiment with SW-620 and in the experiment with U-251 was > 100 µM (inactive) in each case.

Consider `NCc1c(C(N)=O)ncn1Cc1ccccc1`, for which the GI50 in the experiment with A549, with ACHN, in the experiment on HCC 2998, with HT-29, in the experiment with M14 and with MOLT-4 was > 100 µM (inactive) throughout. Also, the GI50 in the experiment with OVCAR-3, in the experiment with RXF 393, in the experiment with SF-539, with SK-MEL-5, in the experiment on SNB-75 and in the experiment on SW-620 was > 100 µM (inactive) throughout. Moreover, the GI50 in the experiment on U-251 was > 100 µM (inactive).

With `CC(C)(C)c1cc(O)c2c(c1O)C(=O)CCC2`, the GI50 was 35.9 µM (inactive) in the experiment with A549; 50.2 µM (inactive) with ACHN; 36.7 µM (inactive) in the experiment on HCC 2998; 32.9 µM (inactive) with HT-29; 34.9 µM (inactive) with M14; 23.9 µM (inactive) in the experiment on MOLT-4. The GI50 with OVCAR-3 was 25.6 µM (inactive); in the experiment with RXF 393 it was 19.1 µM (inactive); in the experiment with SF-539, 42.3 µM (inactive); with SK-MEL-5, 18.4 µM (inactive); in the experiment with SNB-75 it was 42.4 µM (inactive); in the experiment with SW-620, 57.8 µM (inactive). In addition, the GI50 in the experiment with U-251 was 50.7 µM (inactive).

For `Nc1nc(N)c(-c2ccccc2)c(C(=O)Nc2nccs2)n1`, the GI50 in the experiment on A549, in the experiment on ACHN, in the experiment with HCC 2998, with HT-29, in the experiment with KM12 and in the experiment on M14 was > 100 µM (inactive) in each case. Besides, the GI50 in the experiment on MOLT-4, in the experiment on NCI-H226, in the experiment with OVCAR-3, in the experiment with OVCAR-5, in the experiment on RXF 393 and with SF-539 was > 100 µM (inactive) throughout. Also, the GI50 with SK-MEL-2, with SK-MEL-5, in the experiment on SW-620 and in the experiment on U-251 was > 100 µM (inactive) throughout.

As for `O=C(NN1C(=O)CS(=O)(=O)C1c1cccc(F)c1)c1ccncc1` (stereo unspecified), the GI50 with A549, in the experiment on ACHN, in the experiment with HCC 2998, in the experiment on HT-29, in the experiment with KM12 and in the experiment with M14 was > 100 µM (inactive) throughout. Also, the GI50 in the experiment with MOLT-4, with NCI-H226, in the experiment with OVCAR-5, in the experiment with RXF 393, with SK-MEL-2 and with SK-MEL-5 was > 100 µM (inactive) throughout. Besides, the GI50 was 83.8 µM (inactive) with SNB-75, > 100 µM (inactive) in the experiment with SW-620 and > 10 µM (inactive) in the experiment with U-251.

For `Cc1ccc(S(=O)(=O)N/N=C(\C(=O)Nc2cccc([N+](=O)[O-])c2)c2nc3ccc([N+](=O)[O-])cc3nc2O)cc1`, the GI50 was 31.8 µM (inactive) in the experiment on A549; 13.8 µM (inactive) in the experiment with ACHN; 30.1 µM (inactive) in the experiment on HCC 2998; 53 µM (inactive) in the experiment on HT-29; 37.9 µM (inactive) in the experiment with KM12; > 100 µM (inactive) in the experiment with M14. Besides, the GI50 with MOLT-4 was 24 µM (inactive); with NCI-H226 it was 37.2 µM (inactive); with OVCAR-3 it was > 100 µM (inactive); in the experiment on OVCAR-5 it was 46.3 µM (inactive); with RXF 393, > 100 µM (inactive); in the experiment on SF-539, 24.6 µM (inactive). The GI50 is > 100 µM (inactive) with SK-MEL-2, 26 µM (inactive) with SK-MEL-5, 40.6 µM (inactive) with SW-620 and 70.3 µM (inactive) with U-251.

Turning to `N#CC(/C(CCCC(=O)Nc1cccc([N+](=O)[O-])c1)=N\NC(=O)c1c(O)ccc2ccccc12)c1nc2ccccc2s1` (stereo unspecified), the GI50 is 10.8 µM (inactive) with A549; 20.7 µM (inactive) with ACHN; 37 µM (inactive) with HT-29; 28.8 µM (inactive) in the experiment with KM12; 26.9 µM (inactive) in the experiment on M14; 11.7 µM (inactive) in the experiment on MOLT-4. Further, the GI50 in the experiment with NCI-H226 was 21.9 µM (inactive); in the experiment with OVCAR-3 it was 16.3 µM (inactive); in the experiment on OVCAR-5, 37.7 µM (inactive); with RXF 393, 33.4 µM (inactive); in the experiment on SF-539, 15.3 µM (inactive); with SK-MEL-2, 27.1 µM (inactive). The GI50 is 28.2 µM (inactive) with SK-MEL-5, 10.7 µM (inactive) in the experiment on SNB-75, 44.8 µM (inactive) in the experiment on SW-620 and 16.3 µM (inactive) in the experiment on U-251.

As to `CCC(=O)OC[n+]1ccc2c(C)c3[nH]c4ccc(OC)cc4c3c(C)c2c1`, the GI50 in the experiment on A549 was 0.135 µM (active); with ACHN, 0.0485 µM (active); in the experiment on HT-29, 0.0568 µM (active); in the experiment on KM12, 0.0875 µM (active); in the experiment on M14, 0.333 µM (active); in the experiment with MOLT-4 it was 0.0142 µM (active). Also, the GI50 in the experiment with NCI-H226 was 0.348 µM (active); in the experiment on OVCAR-3 it was 1.34 µM (inactive); in the experiment on OVCAR-5 it was 0.299 µM (active); with RXF 393, 0.166 µM (active); with SF-539, 0.243 µM (active); in the experiment on SK-MEL-2 it was 0.291 µM (active). Further, the GI50 was 0.728 µM (active) with SK-MEL-5, 0.434 µM (active) in the experiment on SNB-75, 0.0288 µM (active) in the experiment with SW-620 and 0.0547 µM (active) with U-251.

Consider `CC1OC(n2ccc3ccc([N+](=O)[O-])cc32)C(O)C(O)C1O` (stereo unspecified), for which the GI50 in the experiment with A549, in the experiment with ACHN, in the experiment on HT-29, with KM12, in the experiment on M14 and in the experiment on MOLT-4 was > 100 µM (inactive) each time. In addition, the GI50 in the experiment on NCI-H226, in the experiment with OVCAR-3, with OVCAR-5, in the experiment with RXF 393, in the experiment on SF-539 and in the experiment on SK-MEL-2 was > 100 µM (inactive) throughout. Further, the GI50 in the experiment with SK-MEL-5, in the experiment with SNB-75, in the experiment on SW-620 and in the experiment on U-251 was > 100 µM (inactive) throughout.

Take `[O-]/[N+](=C\c1ccccc1)[C@H](COCc1ccccc1)c1ccccc1`: the GI50 in the experiment with A549 is 51.6 µM (inactive); with ACHN, 66.4 µM (inactive); in the experiment with HCC 2998, > 100 µM (inactive); in the experiment on HT-29, 71 µM (inactive); in the experiment on KM12, 70.3 µM (inactive); in the experiment with MOLT-4, 36.5 µM (inactive). The GI50 with OVCAR-3 is 27.6 µM (inactive); in the experiment with OVCAR-5, > 100 µM (inactive); in the experiment on RXF 393 it was 36.6 µM (inactive); in the experiment on SF-539, > 100 µM (inactive); in the experiment on SK-MEL-2 it was 27.3 µM (inactive); in the experiment with SK-MEL-5, 63.1 µM (inactive). Besides, the GI50 in the experiment with SNB-75 was 74.3 µM (inactive); in the experiment on SW-620 it was > 100 µM (inactive); with U-251 it was 80.9 µM (inactive).
